Reference: US20230157952A1, “METHOD FOR IMPROVING THE STABILITY OF A PHARMACEUTICAL COMPOSITION COMPRISING A HIGH PENETRATION DRUG, AND THE PHARMACEUTICAL COMPOSITION OBTAINED THEREFROM” (Techfields Inc., priority 2020, published 2023)

How the values were obtained:
[1] = Effect of temperature (and pH) on the stability of the solution (purity); type: physicochemical; conditions: 7% solution in water
[2] = Effect of concentration on the stability of the solution (purity over time); conditions: in water at 25° C.

CCN(CC)CCOC(=O)CCc1ccc2cc(OC)ccc2c1.Cl [2-(diethylamino)ethyl 3-(6-methoxy-2-naphthyl)propionate•HCl]
Stability of the solution at a temperature higher than 40° C. and a pH lower than 3 or greater than 6 [1]: not stable | Purity at Day 3 ([2]; 0.01 wt %): 84.7% | Purity at Day 7 ([2]; 0.01 wt %): 73.9% | Purity at Day 14 ([2]; 0.01 wt %): 62.3% | Purity at Day 21 ([2]; 0.01 wt %): 53.9% | Purity at Day 28 ([2]; 0.01 wt %): 45.9% | Purity at hr 0 ([2]; 0.01 wt %): 97.7% | Purity at Day 3 ([2]; 0.1 wt %): 96.7% | Purity at Day 7 ([2]; 0.1 wt %): 95.5% | Purity at Day 14 ([2]; 0.1 wt %): 91.1% | Purity at Day 21 ([2]; 0.1 wt %): 87.2% | Purity at Day 28 ([2]; 0.1 wt %): 83.8% | Purity at hr 0 ([2]; 0.1 wt %): 97.9% | Purity at Day 3 ([2]; 1 wt %): 97.0% | Purity at Day 7 ([2]; 1 wt %): 96.0% | Purity at Day 14 ([2]; 1 wt %): 94.0% | Purity at Day 21 ([2]; 1 wt %): 92.3% | Purity at Day 28 ([2]; 1 wt %): 90.9% | Purity at hr 0 ([2]; 1 wt %): 98.1% | Purity at Day 3 ([2]; 3 wt %): 97.7% | Purity at Day 7 ([2]; 3 wt %): 97.0% | Purity at Day 14 ([2]; 3 wt %): 96.0% | Purity at Day 21 ([2]; 3 wt %): 94.8% | Purity at Day 28 ([2]; 3 wt %): 93.8% | Purity at hr 0 ([2]; 3 wt %): 98.3% | Purity at Day 3 ([2]; 5 wt %): 98.2% | Purity at Day 7 ([2]; 5 wt %): 98.0% | Purity at Day 14 ([2]; 5 wt %): 97.6% | Purity at Day 21 ([2]; 5 wt %): 97.0% | Purity at Day 28 ([2]; 5 wt %): 96.3% | Purity at hr 0 ([2]; 5 wt %): 98.4% | Purity at Day 3 ([2]; 7 wt %): 98.4% | Purity at Day 7 ([2]; 7 wt %): 98.2% | Purity at Day 14 ([2]; 7 wt %): 98.0% | Purity at Day 21 ([2]; 7 wt %): 97.8% | Purity at Day 28 ([2]; 7 wt %): 97.4% | Purity at hr 0 ([2]; 7 wt %): 98.5% | Purity at Day 3 ([2]; 8 wt %): 98.4% | Purity at Day 7 ([2]; 8 wt %): 98.3% | Purity at Day 14 ([2]; 8 wt %): 98.0% | Purity at Day 21 ([2]; 8 wt %): 97.9% | Purity at Day 28 ([2]; 8 wt %): 97.5% | Purity at hr 0 ([2]; 8 wt %): 98.4% | Purity at Day 3 ([2]; 10 wt %): 98.4% | Purity at Day 7 ([2]; 10 wt %): 98.3% | Purity at Day 14 ([2]; 10 wt %): 98.2% | Purity at Day 21 ([2]; 10 wt %): 98.0% | Purity at Day 28 ([2]; 10 wt %): 97.5% | Purity at hr 0 ([2]; 10 wt %): 98.5% | Purity at Day 3 ([2]; 15 wt %): 98.4% | Purity at Day 7 ([2]; 15 wt %): 98.2% | Purity at Day 14 ([2]; 15 wt %): 98.1% | Purity at Day 21 ([2]; 15 wt %): 98.0% | Purity at Day 28 ([2]; 15 wt %): 97.6% | Purity at hr 0 ([2]; 15 wt %): 98.5% | Purity at Day 3 ([2]; 20 wt %): 98.4% | Purity at Day 7 ([2]; 20 wt %): 98.2% | Purity at Day 14 ([2]; 20 wt %): 98.2% | Purity at Day 21 ([2]; 20 wt %): 98.1% | Purity at Day 28 ([2]; 20 wt %): 97.5% | Purity at hr 0 ([2]; 20 wt %): 98.4% | Purity at Day 3 ([2]; 30 wt %): 98.4% | Purity at Day 7 ([2]; 30 wt %): 98.3% | Purity at Day 14 ([2]; 30 wt %): 98.1% | Purity at Day 21 ([2]; 30 wt %): 98.1% | Purity at Day 28 ([2]; 30 wt %): 97.5% | Purity at hr 0 ([2]; 30 wt %): 98.5% | Purity at Day 3 ([2]; 50 wt %): 98.5% | Purity at Day 7 ([2]; 50 wt %): 98.3% | Purity at Day 14 ([2]; 50 wt %): 98.1% | Purity at Day 21 ([2]; 50 wt %): 97.8% | Purity at Day 28 ([2]; 50 wt %): 97.6% | Purity at hr 0 ([2]; 50 wt %): 98.5% | Stability when the concentration is 0.1% or lower [2]: not stable
